Data taken from US7723091B2 (priority 1999, dated 2010).
Where two headings read alike, the source gives them in different places.

Assays:
[1] = test system: C. parvum; assay: Anti-cryptosporidial activity in MDCK cell cultures (chemiluminescence immunoassay); assay type: cell-based, Cryptosporidium parvum
Experimental: The enzyme PI-PLC was evaluated for anti-cryptosporidial activity and toxicity at concentrations ranging from 0.001-30 U/ml were performed using 4-day-old Madin-Darby canine kidney (MDCK) cells. Enzyme units were defined as by the method in Example 4 but measured as in Example 9. The preparation of enzyme used was from recombinant Bacillus megaterium. Treatment was initiated 3 hours after infection and continued through 48 hours.
Chemiluminescence Immunoassay. Before infection, oocysts were washed and resuspended in DMEM base with 0.75% sodium taurocholate and incubated for 10 min at 37° C. (You et al., FEMS Microbiol. Letters 136:251-256, 1996; You et al., J. Antimicrobial. Chemother. 41:293-296, 1998). The excystation mixture was diluted with Ultraculture medium, promptly dispensed in plates containing MDCK cells, at 100% confluence, and maintained in Ultraculture medium for 4 days. The inoculum was incubated with the cells for3 h before washing with PBS and replaced with fresh Ultraculture medium with or without test enzyme. Plates were incubated at 37° C., in a 5% CO2 air atmosphere for 48 h. Cultures were washed with PBS and fixed with Bouin's solution.
The fixed plates were washed with TBST buffer (20 mM Tris-HCl (pH 7.5), 150 mM NaCl, 0.05% Tween-20) and blocked with 1% BSA-TBST (TBST buffer containing 1% bovine serum albumin) for 30 min at 25° C. with gentle shaking. Rabbit anti-Cryptosporidium parvum sera (1:200 dilution) was applied to the plates and incubated for 1 hr. After washing with TBST, the samples were sequentially incubated with biotin-labeled goat anti-rabbit IgG and horseradish peroxidase-labeled streptavidin (working dilution, 1:1000, KPL Inc., Gaithersburg, Md.). Enhanced Luminol (4-iodophenol and hydrogen peroxide, Aldrich Chemical Co. Inc., Milwaukee, Wis.) was used as a substrate. The plates were read with an ML3000 Luminometer (Dynatech Lab., Chantilly, Va.) and the relative light units (RLU) were determined. Means of RLU were calculated from 4 replicate wells and all experiments were repeated at least twice.
A second set of experiments were performed to evaluate enzyme specificity. Sporozoites were treated with the enzyme at various concentrations for 45 min and briefly washed. The treated sporozoites were then allowed to infect untreated host cells and develop and reproduce for 48 hours. In a separate experiment, host cells were incubated with the enzyme at various concentrations, washed and infected with untreated sporozoites. As shown below (Table 14), treatment of either sporozoite or host cells with the enzyme results in partial inhibition. A dose dependent inhibition was not observed in this concentration range. This may be due to the short incubation period of the enzyme with host or parasite cells (45 min) or partial or incomplete cleavage of host/parasite receptors. Additionally, other host/parasite receptors are probably involved in infection and account for the growth observed in the host cells.

[2] = test system: E. acervulina and Clostridium perfringens; assay type: in vivo, broiler chickens
[3] = Host cells treated before infection (washed), 0.01 Unit/ml
[4] = Host cells treated before infection (washed), 0.03 Unit/ml
[5] = Host cells treated before infection (washed), 0.1 Unit/ml
[6] = Host cells treated before infection (washed), 0.3 Unit/ml
[7] = Host cells treated before infection (washed), 1 Unit/ml
[8] = Sporozoite treated before infection (45 min, washed), 0.01 Unit/ml
[9] = Sporozoite treated before infection (45 min, washed), 0.03 Unit/ml
[10] = Sporozoite treated before infection (45 min, washed), 0.1 Unit/ml
[11] = Sporozoite treated before infection (45 min, washed), 0.3 Unit/ml
[12] = Sporozoite treated before infection (45 min, washed), 1 Unit/ml
[13] = enzyme added 3 h post infection, 48 h, 0.01 Unit/mL
[14] = enzyme added 3 h post infection, 48 h, 0.03 Unit/mL
[15] = enzyme added 3 h post infection, 48 h, 0.1 Unit/mL
[16] = enzyme added 3 h post infection, 48 h, 0.3 Unit/mL
[17] = enzyme added 3 h post infection, 48 h, 1 Unit/mL
[18] = Trial II T4 (Rec), T7 (Wt), infected, 10 U/lb
[19] = Trial II T9, no infection challenge, 90 U/lb

## phosphatidylinositol specific phospholipase C [Recombinant PI-PLC]
[1]; [3]
  Mean Number of Cryptosporidium per microtiter plate well: 543.85
  Percent Inhibition: 56.84%
[1]; [4]
  Mean Number of Cryptosporidium per microtiter plate well: 522.66
  Percent Inhibition: 58.53%
[1]; [5]
  Mean Number of Cryptosporidium per microtiter plate well: 455.88
  Percent Inhibition: 63.82%
[1]; [6]
  Mean Number of Cryptosporidium per microtiter plate well: 629.24
  Percent Inhibition: 50.07%
[1]; [7]
  Mean Number of Cryptosporidium per microtiter plate well: 393.64
  Percent Inhibition: 68.76%
[1]; [8]
  Mean Number of Cryptosporidium per microtiter plate well: 542.15
  Percent Inhibition: 56.98%
[1]; [9]
  Mean Number of Cryptosporidium per microtiter plate well: 527.59
  Percent Inhibition: 58.13%
[1]; [10]
  Mean Number of Cryptosporidium per microtiter plate well: 536.80
  Percent Inhibition: 57.40%
[1]; [11]
  Mean Number of Cryptosporidium per microtiter plate well: 433.04
  Percent Inhibition: 65.64%
[1]; [12]
  Mean Number of Cryptosporidium per microtiter plate well: 412.40
  Percent Inhibition: 67.27%
[1]; at a concentration of 0.1 U/mL (FIG. 1), enzyme added 3 h after infection for 48 hours
  inhibition: Approximately 50%
[1]; enzyme added 3 h after infection for 48 hours
  concentration range with anti-cryptosporidial activity in vitro: 0.01-1 U/mL
[1]; [13]
  Mean Number of Cryptosporidium per microtiter plate well: 1167.78
  Percent Inhibition: 7.33%
[1]; [14]
  Mean Number of Cryptosporidium per microtiter plate well: 912.15
  Percent Inhibition: 27.62%
[1]; [15]
  Mean Number of Cryptosporidium per microtiter plate well: 595.53
  Percent Inhibition: 52.74%
[1]; [16]
  Mean Number of Cryptosporidium per microtiter plate well: 286.5
  Percent Inhibition: 77.26%
[1]; [17]
  Mean Number of Cryptosporidium per microtiter plate well: 285.28
  Percent Inhibition: 77.36%
[2]; Trial II T3, infected, 3 U/lb
  8-21 Day Feed Conversion (Corrected): 1.702
  8-21 Day Weight Gain: 323.24
  Average Intestinal Lesion Score: 1.120
[2]; [18]
  8-21 Day Feed Conversion (Corrected): 1.732
  8-21 Day Weight Gain: 324.78
  Average Intestinal Lesion Score: 1.133
[2]; Trial II T5, infected, 30 U/lb
  8-21 Day Feed Conversion (Corrected): 1.699
  8-21 Day Weight Gain: 320.64
  Average Intestinal Lesion Score: 0.842
[2]; Trial II T6, infected, 90 U/lb
  8-21 Day Feed Conversion (Corrected): 1.739
  8-21 Day Weight Gain: 328.29
  Average Intestinal Lesion Score: 0.808
[2]; [19]
  8-21 Day Feed Conversion (Corrected): 1.650
  8-21 Day Weight Gain: 338.8
  Average Intestinal Lesion Score: 0.847
[2]; Trial II, T3-T6 (3-90 U/lb)
  effect of varying concentrations on intestinal lesion score, feed conversion and weight gain: dose-dependent effect on lowering the intestinal lesion score and feed conversion (T3-T6) and increasing weight gain
